Results taken from paper PMC5911580, “YL143, a novel mutant selective irreversible EGFR inhibitor, overcomes EGFR^L858R, T790M‐mutant resistance in vitro and in vivo” (Cancer Medicine, 2018).

Columns and labels:
[1] = target: T1, EGFR^WT (Homo sapiens, UniProt P00533); assay: FRET-based Z'-Lyte kinase assay, EGFR WT; assay type: biochemical; conditions: AV ± SD; 1.5 h incubation
T1 construct: purchased Invitrogen
Procedure: (§1) The kinase activity assay was performed and optimized according to the instructions of Z’‐LYTE™ kinase assay kits from the manufacturer (PV4879, Life, America). In our experiments, 10 concentration gradients from 0.01 nmol/L to 1.0 μmol/L were used for all the compounds.

[2] = target: T2, EGFR^Del 19 (Homo sapiens, UniProt P00533, DEL746-750); assay: FRET-based Z'-Lyte kinase assay, EGFR Del 19; assay type: biochemical; conditions: AV ± SD; 1.5 h incubation
T2 construct: purchased Invitrogen
T2 sequence (P00533 with tags, fused parts or gaps DEL746-750): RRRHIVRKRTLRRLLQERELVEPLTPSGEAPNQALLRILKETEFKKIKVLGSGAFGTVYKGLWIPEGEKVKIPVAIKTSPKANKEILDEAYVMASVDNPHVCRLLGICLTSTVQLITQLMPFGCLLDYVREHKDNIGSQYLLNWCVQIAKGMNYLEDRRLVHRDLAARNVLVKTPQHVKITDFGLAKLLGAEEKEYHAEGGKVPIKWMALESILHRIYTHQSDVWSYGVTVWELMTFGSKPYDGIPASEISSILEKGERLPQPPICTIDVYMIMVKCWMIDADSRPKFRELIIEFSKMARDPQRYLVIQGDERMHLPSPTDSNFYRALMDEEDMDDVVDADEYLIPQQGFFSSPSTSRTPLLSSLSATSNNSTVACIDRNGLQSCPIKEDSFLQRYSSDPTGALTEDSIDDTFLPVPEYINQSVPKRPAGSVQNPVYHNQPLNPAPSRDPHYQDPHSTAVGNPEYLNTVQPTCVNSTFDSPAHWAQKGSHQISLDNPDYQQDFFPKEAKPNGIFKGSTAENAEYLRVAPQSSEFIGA
Procedure: as §1

[3] = tested on: HCC827 (EGFR^del 19) cells; assay: CCK-8 cell growth assay, HCC827; assay type: cell-based; conditions: Homo sapiens, HCC827; CCK-8, 72 h; AV ± SD; read-out: antiproliferative IC50 HCC827
Procedure: Cells were seeded into 96‐well plates at a density of 1500~3000/well in complete medium overnight. Then, cells were treated with various concentrations (0.01~1000 nmol/L) of YL143 for additional 3 days. Viable cell numbers were determined by Cell Counting Kit 8 (CCK8, CK04, Dojindo Laboratories, Japan). Each assay consisted of three replicate wells and repeated at least three times. […] Each IC50 value was expressed as mean ± SD.

[4] = target: AKT2 (Homo sapiens, UniProt P31751); assay: Z'-Lyte kinase panel, AKT2; assay type: biochemical; conditions: 1.5 hrs incubation
Sequence of AKT2 (P31751 whole entry, species assumed): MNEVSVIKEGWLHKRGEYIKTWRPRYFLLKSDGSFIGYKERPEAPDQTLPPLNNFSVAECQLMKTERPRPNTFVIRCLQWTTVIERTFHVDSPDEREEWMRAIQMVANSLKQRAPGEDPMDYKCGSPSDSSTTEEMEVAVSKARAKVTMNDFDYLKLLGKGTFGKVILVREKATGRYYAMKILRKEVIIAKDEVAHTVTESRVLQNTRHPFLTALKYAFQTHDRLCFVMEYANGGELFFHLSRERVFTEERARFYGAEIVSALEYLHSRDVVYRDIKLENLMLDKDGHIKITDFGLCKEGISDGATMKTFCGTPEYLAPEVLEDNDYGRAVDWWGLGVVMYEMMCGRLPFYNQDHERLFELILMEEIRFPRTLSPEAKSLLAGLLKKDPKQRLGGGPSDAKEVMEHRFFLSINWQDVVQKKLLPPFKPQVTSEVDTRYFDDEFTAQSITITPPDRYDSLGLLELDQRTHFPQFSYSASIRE
Procedure: (§2) Kinase activity assays were performed using the FRET-based Z′-Lyte assay according to the manufacturer’s instructions. The compounds were incubated with the kinase reaction mixture for 1.5 hrs before measurement. The data are means from two independent experiments and the variations are below 20%.

[5] = target: AKT3 (Homo sapiens, UniProt Q9Y243); assay: Z'-Lyte kinase panel, AKT3; assay type: biochemical; conditions: 1.5 hrs incubation
Sequence of AKT3 (Q9Y243 whole entry, species assumed): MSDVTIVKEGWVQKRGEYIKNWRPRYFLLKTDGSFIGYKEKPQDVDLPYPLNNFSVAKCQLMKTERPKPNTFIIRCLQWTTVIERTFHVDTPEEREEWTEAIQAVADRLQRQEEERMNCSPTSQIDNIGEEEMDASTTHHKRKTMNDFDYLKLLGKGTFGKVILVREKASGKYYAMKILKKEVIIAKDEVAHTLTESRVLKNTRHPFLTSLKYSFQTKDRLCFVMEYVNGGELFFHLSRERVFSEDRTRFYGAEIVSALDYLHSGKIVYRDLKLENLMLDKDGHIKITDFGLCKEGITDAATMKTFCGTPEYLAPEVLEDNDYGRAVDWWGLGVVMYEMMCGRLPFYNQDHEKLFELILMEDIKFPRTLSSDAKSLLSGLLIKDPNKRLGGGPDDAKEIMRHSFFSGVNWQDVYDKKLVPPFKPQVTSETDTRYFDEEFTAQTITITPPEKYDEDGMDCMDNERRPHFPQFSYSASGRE
Procedure: as §2

[6] = target: ZAK (Homo sapiens, UniProt Q9NYL2); assay: Z'-Lyte kinase panel, ZAK; assay type: biochemical; conditions: 1.5 hrs incubation
Sequence of ZAK (Q9NYL2 whole entry, species assumed): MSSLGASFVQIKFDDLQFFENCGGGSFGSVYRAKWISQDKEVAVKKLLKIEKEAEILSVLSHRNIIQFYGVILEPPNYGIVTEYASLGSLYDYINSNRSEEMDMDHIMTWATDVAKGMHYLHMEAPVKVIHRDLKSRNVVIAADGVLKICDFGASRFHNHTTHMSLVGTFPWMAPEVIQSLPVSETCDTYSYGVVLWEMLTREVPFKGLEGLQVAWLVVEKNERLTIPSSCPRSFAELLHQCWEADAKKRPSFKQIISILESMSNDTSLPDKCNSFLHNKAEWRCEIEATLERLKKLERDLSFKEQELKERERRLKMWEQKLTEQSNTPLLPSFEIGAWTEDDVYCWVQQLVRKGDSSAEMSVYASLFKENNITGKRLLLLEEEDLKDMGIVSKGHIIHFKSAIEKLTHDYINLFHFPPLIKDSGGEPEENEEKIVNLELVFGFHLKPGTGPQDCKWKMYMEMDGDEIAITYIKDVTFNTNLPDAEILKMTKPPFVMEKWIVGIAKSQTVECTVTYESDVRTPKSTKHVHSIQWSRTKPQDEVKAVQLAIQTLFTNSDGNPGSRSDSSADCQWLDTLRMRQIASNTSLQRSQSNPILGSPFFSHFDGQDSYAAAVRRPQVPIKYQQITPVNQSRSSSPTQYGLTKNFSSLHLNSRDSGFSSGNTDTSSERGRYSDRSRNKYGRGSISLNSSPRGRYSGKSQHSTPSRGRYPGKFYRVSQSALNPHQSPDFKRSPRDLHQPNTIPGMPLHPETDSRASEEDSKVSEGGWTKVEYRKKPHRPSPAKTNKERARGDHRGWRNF
Procedure: as §2

[7] = Pharmacokinetic study in SD rats; assay type: in vivo, rat
Procedure: Sprague Dawley (SD) rats (180–220 g) were fasted overnight before drug administration. They could eat food and drink water freely during the study. Rats were grouped and treated with 25 and 5 mg/kg of YL143 in vehicle via oral gavage and i.v., respectively. Eyeground vein blood samples (0.20 mL) were collected from each animal at designed time point postdose (5, 30 min, 1, 2, 4, 8, 12, 24, 36, 48, 60, and 72 h.). Blood samples were centrifuged within 10 min at 900 g, and then, plasma was separated and stored at 4°C until analysis. Drug concentration was quantitatively detected using an API 300 mass spectrometer (Applied Biosystems, Canada) with TurboIonSpray source interface. Data acquisition and quantitation were performed using Analyst 1.4 (Applied Biosystems, Canada). All pharmacokinetic parameters were calculated by DAS 2.0 using a noncompartment model (Clinical drug research center of Shanghai University of Traditional Chinese Medicine, Shanghai, China).

[8] = tested on: CDK2, CDK4, cyclin D2, cyclin E, caspase-3, caspase-9 in H1975 cells; assay: Western blot of cell cycle and apoptosis proteins in H1975 cells; assay type: cell-based, human; conditions: 3 to 300 nmol/L, 48 h
Procedure: Cells were treated with various concentrations of compound for designed time. Then, cells were lysed using 1 × SDS sample lysis buffer (CST recommended) with protease and phosphatase inhibitors. Cell lysates were loaded and electrophoresed onto 8–12% SDS‐PAGE gel, and then, separated proteins were transferred to a PVDF film. The film was blocked with 5% fat‐free milk in TBS solution containing 0.5% Tween‐20 for 4 h at room temperature and then incubated with corresponding primary antibody (1:1000–1:200) overnight at 4°C. After washing with TBST, HRP‐conjugated secondary antibody was incubated for 2 h. And the protein signals were visualized by ECL Western Blotting Detection Kit (Thermo Scientific, Waltham, MA) and detected with Amersham Imager 600 system (GE, America).
Figure 3 YL143 induces G0/G1 cell cycle arrest and apoptosis in H1975 cells. (A) YL143 induces G0/G1 cell cycle arrest in H1975 cells H1975 cells were treated with 3, 30 or 300 nmol/L for 48 h before DNA labeling by propidium iodide and cell cycle analysis by flow cytometry. (B) YL143 induces apoptosis in H1975 cells. H1975 cells were treated with 3, 30 or 300 nmol/L for 48 h before DNA labeling by Annexin V and 7‐AAD and cell apoptosis analysis by flow cytometry. (C) The effect of YL143 on the expression of CDK4, Cyclin D2, CDK2, Cyclin E, Caspase‐9 and Caspase‐3 was tested by western blotting. […]

[9] = Sprague-Dawley, rat, plasma, iv, I.V. 5 mg/Kg
[10] = Sprague-Dawley, rat, plasma, po, P.O. 25 mg/Kg

T1 sequence (P00533 25-1210): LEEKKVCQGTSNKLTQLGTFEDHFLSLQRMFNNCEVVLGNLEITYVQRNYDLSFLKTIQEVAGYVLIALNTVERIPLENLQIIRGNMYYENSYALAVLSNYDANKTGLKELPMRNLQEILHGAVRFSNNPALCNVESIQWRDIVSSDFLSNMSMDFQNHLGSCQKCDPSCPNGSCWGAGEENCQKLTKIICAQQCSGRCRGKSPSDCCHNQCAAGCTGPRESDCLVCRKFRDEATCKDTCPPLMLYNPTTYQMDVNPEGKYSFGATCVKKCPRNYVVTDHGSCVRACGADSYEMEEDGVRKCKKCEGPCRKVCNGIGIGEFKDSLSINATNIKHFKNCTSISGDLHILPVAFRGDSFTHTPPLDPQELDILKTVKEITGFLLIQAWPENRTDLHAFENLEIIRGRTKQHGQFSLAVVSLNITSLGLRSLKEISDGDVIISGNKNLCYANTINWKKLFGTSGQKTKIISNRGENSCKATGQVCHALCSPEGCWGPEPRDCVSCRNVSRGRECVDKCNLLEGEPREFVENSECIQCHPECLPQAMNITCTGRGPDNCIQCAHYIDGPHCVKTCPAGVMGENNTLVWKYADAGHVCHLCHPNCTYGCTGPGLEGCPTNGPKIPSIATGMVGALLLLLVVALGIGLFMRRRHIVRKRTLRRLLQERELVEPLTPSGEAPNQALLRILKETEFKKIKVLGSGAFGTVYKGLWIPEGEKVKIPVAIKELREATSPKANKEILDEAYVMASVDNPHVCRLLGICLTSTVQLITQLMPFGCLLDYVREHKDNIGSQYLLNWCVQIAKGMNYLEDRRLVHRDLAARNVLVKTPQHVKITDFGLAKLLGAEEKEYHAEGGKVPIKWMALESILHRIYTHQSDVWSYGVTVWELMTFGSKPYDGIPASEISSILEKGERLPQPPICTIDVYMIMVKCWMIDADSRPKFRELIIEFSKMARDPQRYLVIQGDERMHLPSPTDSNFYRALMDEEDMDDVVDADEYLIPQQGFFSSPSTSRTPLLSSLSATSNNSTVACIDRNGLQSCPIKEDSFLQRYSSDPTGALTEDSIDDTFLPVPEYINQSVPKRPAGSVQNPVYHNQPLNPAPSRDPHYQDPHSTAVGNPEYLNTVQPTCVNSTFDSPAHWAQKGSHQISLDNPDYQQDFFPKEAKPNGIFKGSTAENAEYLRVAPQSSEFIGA

In the case of `C=CC(=O)Nc1cc(C)cc(-n2c(=O)cc(C)c3cnc(Nc4ccc(N5CCN(C)CC5)cc4OC)nc32)c1` [YL143, N‐(3‐(2‐((2‐Methoxy‐4‐(4‐methylpiperazin‐1‐yl)phenyl)amino)‐5‐methyl‐7‐oxopyrido [2,3‐d]pyrimidin‐8(7H)‐yl)‐5‐methylphenyl)acrylamide], the IC50 [1] is reported as 185 ± 43.4 nM, the IC50 [2] is reported as 81.5 ± 10.3 nM and the IC50 [3] is reported as 21.1 ± 9.9 nM. The IC50 [4] was > 10000 nM, the IC50 [5] was > 10000 nM and the IC50 [6] was > 10000 nM. The “BA (oral bioavailability)” value ([7]; P.O. 25 mg/Kg vs I.V. 5 mg/Kg) was 24.95%, the T1/2 ([7]; P.O. 25 mg/Kg, 25 mg/kg) was 6.13 h and the half-life ([7]; Sprague-Dawley, rat, plasma, iv, 5 mg/kg, I.V. 5 mg/Kg) was 1.36 h. It also gave an AUC(0-inf) [7, 9] of 1880 ng·h/mL, a Cmax [7, 9] of 3270 ng/mL and a Tmax [7, 9] of 0.08 h. For the same compound, the bioavailability ([7]; Sprague-Dawley, rat, plasma, oral, 25 mg/kg, P.O. 25 mg/Kg vs I.V. 5 mg/Kg, read-out: BA (oral bioavailability)) was 25%, the half-life ([7]; Sprague-Dawley, rat, plasma, po, 25 mg/kg, P.O. 25 mg/Kg) was 6.1 h and the AUC(0-inf) [7, 10] was 2340 ng·h/mL. The Cmax [7, 10] was 160 ng/mL, the Tmax [7, 10] was 6.67 h and the Cmax ([7]; Sprague-Dawley, rat, plasma, single oral dosing 25 mg/kg) was 297 nM. The “protein levels of CDK2, CDK4, cyclin D2, cyclin E” value [8] was “dose‐dependently decreased”.
